A short description of data set [1]: Measurement of parent and metabolite levels in mice (plasma and brain levels after single oral co-dosing). As to conditions: for Cmax / Tmax / AUC / concentration at […] / concentration at 0.5 h / concentration at 1 h / concentration at 2 h / concentration at 4 h: mouse, single dose oral, co-dosed; for AUC: 0.25-4 hr sampling; for concentration at […]: 0.25 hr. The data set is classed as in vivo. On the procedure: The compound of Example 1 and the compound of Formula Q are co-dosed in mice (n=3), and the levels of the both compounds are studied. Procedures for the synthesis of the compound of Formula Q can be found in WO 2008/112280. […] The mean values for maximum concentration, time to maximum concentration, and Area Under the Curve (AUC) for both compounds is determined.

Data set [2] has as its system serotonin receptor (e.g., 5-HT2A). The data set is described as follows: Receptor binding studies, serotonin receptor.
Data set [3] concerns dopamine receptor (e.g., D2). The data set is described as follows: Receptor binding studies, dopamine receptor.
The target in the next data set is serotonin transporter (Homo sapiens, UniProt P31645). The data set is described as follows: Receptor binding studies, serotonin transporter.
Sequence of serotonin transporter (P31645 whole entry): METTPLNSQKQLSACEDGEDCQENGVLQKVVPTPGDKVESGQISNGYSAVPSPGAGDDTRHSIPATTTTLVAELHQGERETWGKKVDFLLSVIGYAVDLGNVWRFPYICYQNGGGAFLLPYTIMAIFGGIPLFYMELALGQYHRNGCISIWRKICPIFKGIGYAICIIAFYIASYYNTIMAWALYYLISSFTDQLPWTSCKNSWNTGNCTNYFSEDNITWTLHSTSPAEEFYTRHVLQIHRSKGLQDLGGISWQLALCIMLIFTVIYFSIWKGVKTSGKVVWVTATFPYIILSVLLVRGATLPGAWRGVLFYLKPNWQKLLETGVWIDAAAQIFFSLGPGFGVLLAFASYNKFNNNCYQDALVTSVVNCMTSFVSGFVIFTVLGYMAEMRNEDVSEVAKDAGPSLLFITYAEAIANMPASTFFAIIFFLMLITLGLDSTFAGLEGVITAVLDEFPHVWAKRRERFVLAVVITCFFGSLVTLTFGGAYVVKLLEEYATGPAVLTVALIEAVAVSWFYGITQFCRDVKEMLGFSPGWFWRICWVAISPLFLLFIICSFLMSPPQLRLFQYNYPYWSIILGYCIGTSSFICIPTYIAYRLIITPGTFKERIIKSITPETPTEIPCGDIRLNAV
Setting [4] is: mean n=3, brain, read-out: Brain level.
Where [5] appears, read: mean n=3, plasma, read-out: Plasma level.

Like-named read-outs stand apart in the source and are kept apart here.

Consider `CN1CCN2c3c(cccc31)[C@@H]1CN(CCCC(=O)c3ccc(F)cc3)CC[C@@H]12` [Formula Q, reference compound], for which, in data set [1] (brain), the Cmax (usually the maximum level reached in the sampled fluid or tissue) is 384 ng/g; the Tmax (in general, the time from dosing to the highest level) came to 30 min; the AUC (in general, concentration integrated over time) was 387 ng·h/mL. For the same compound, in data set [1] (setting [4]), the concentration at […] turned out to be 228 ng/g, the concentration at 0.5 h stood at 384 ng/g, the concentration at 1 h is 37.9 ng/g and the concentration at 2 h was 65.6 ng/g. For the same compound, in data set [1] (setting [4]), the concentration at 4 h came out at 58.8 ng/g. Besides, in data set [1] (setting [5]), the concentration at […] was 28.2 ng/mL, the concentration at 0.5 h worked out at 34.9 ng/mL, the concentration at 1 h was 11 ng/mL and the concentration at 2 h was 29.9 ng/mL. In data set [1] (setting [5]), the concentration at 4 h stood at 16.3 ng/mL. Also, in data set [1] (plasma), the highest concentration (Cmax) stood at 34.9 ng/mL, the time of peak concentration (Tmax) was determined as 30 min and the area under the curve (AUC) came to 89.5 ng·h/mL.
`[2H]C1([2H])N(C)c2cccc3c2N([C@H]2CCN(CCCC(=O)c4ccc(F)cc4)C[C@@H]32)C1([2H])[2H]` [Example 1, 1-(4-fluorophenyl)-4-((6bR,10aS)-1,1,2,2-tetradeuterio-3-methyl-2,3,6b,7,10,10a-hexahydro-1H-pyrido[3′,4′:4,5]pyrrolo[1,2,3-de]quinoxalin-8(9H)-yl) butan-1-one p-toluenesulfonate]: the “Metabolic clearance compared to the compound of Formula Q” value in data set [1] (concluded from higher Cmax and AUC values) is on record as “reduced metabolic clearance”. In addition, in data set [1] (brain), the highest concentration (Cmax) came out at 402 ng/g, the time to peak (Tmax) was determined as 30 min and the area under the curve (AUC) amounted to 404 ng·h/mL. Further, in data set [1] (setting [4]), the concentration at […] came out at 238 ng/g, the concentration at 0.5 h was found to be 402 ng/g, the concentration at 1 h was determined as 39.4 ng/g and the concentration at 2 h was 67.7 ng/g. For the same compound, the concentration at 4 h in data set [1] (setting [4]) was determined as 62.1 ng/g. Also, in data set [1] (setting [5]), the concentration at […] amounted to 30.4 ng/mL, the concentration at 0.5 h worked out at 38.1 ng/mL, the concentration at 1 h came to 11.6 ng/mL and the concentration at 2 h stood at 31.4 ng/mL. Further, the concentration at 4 h in data set [1] (setting [5]) was found to be 16.8 ng/mL. In data set [1] (plasma), the Cmax was 38.1 ng/mL, the time to peak (Tmax) was found to be 30 min and the exposure (AUC) was determined as 94.5 ng·h/mL. Also, in data set [2], the “Receptor binding profile compared to the compound of Formula Q” value is recorded as “substantially the same receptor binding profile”. Besides, the “Receptor binding profile compared to the compound of Formula Q” value in data set [3] was “substantially the same receptor binding profile”. For the same compound, the “Receptor binding profile compared to the compound of Formula Q” value at serotonin transporter was “substantially the same receptor binding profile”.

Values taken from patent US12685731B2, “Organic compounds” (INTRA-CELLULAR THERAPIES, INC., priority 2018, dated 2026).
